Experimental data: article PMC7998748, “A Unique Acylated Flavonol Glycoside from Prunus persica (L.) var. Florida Prince: A New Solid Lipid Nanoparticle Cosmeceutical Formulation for Skincare” (Antioxidants, 2021)

Key:
DPPH assay = assay: DPPH assay
Excerpt: (§1) The DPPH assay was peformed using the method of Yardpiroon et al., Vitamin C was used as a positive control. The ABTS assay followed the method of Re et al., [40], Vitamin C was used as a standard. The β-carotene bleaching assay used the method described by Soulef et al., [14] in the presence of the positive control BHT. The value for each test sample was presented as the inhibition curve at 50% or IC50.

ABTS assay = assay: ABTS assay
Excerpt: as §1

[1] = β-carotene bleaching assay; details: after 30 min
Excerpt: as §1

human leukocyte elastase = target: T1, human leukocyte elastase (Homo sapiens, UniProt P08246); assay: Anti-elastase assay; format: biochemical
T1 sequence (P08246 30-267): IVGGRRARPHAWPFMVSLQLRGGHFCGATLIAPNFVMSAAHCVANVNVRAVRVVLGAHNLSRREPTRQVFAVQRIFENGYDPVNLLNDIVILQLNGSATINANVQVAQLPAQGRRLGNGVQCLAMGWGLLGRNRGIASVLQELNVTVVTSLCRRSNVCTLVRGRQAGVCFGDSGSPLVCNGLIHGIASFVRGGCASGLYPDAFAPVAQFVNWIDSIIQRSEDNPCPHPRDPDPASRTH
Protocol: The anti-aging and skin whitening activities were assessed following the methods reported by Mostafa et al.. For the anti-elastase assay, 1 μg/mL of human leukocyte elastase was incubated with HEPES buffer pH 7.5 and each of the tested extracts or 1.4 mg/mL N-Methoxysuccinyl-Ala-Ala-Pro-chloromethyl ketone (standard inhibitor) in a 96-well plate for 20 min at room temperature before the addition of 100 μL of 1 mM N-Methoxysuccinyl-Ala-Ala-Pro-Val-p-nitroanilide as a substrate. After 40 min incubation the absorbance was measured at 405 nm with a well devoid of extract/inhibitor serving as a blank. The tested samples were used in a concentration range of 25–300 µg/mL.

[2] = test system: human keratinocytes cell line; assay: MTT cytotoxicity in human keratinocytes; format: cell-based; details: 0.0625–0.5 mg/mL, 24 h
Protocol: (§2) The human keratinocytes cell line was obtained from VACSERA CO. (The Egyptian Company for the Production of Vaccines, Sera, and Drugs, Giza, Egypt). The MTT assay was done for PPEE and PPEE-SLNs according to the method of Mostafa et al..
(§3) The MTT assay was used to test whether PPEE, PPEE-SLNs, and KDPAG could affect cell viability using human keratinocytes. Different concentrations of PPEE, PPEE-SLNs, extract-free-SLNs and KDPAG at 0.0625– 1mg/mL were incubated over 24 h with a human keratinocytes cell line (Figure 2). […] However, after treatment with 1 mg/mL of PPEE, PPEE-SLNS, Extract-free-SLNs, and KDPAG over 24 h, a significant reduction in cell viability of human keratinocytes was observed, 93%, 90%, 95%, and 89% of the cells survived, respectively. Thus, concentrations of PPEE, PPEE-SLNs, and KDPAG equal to or lower than 0.5 mg/mL were used for subsequent studies.

[3] = MTT cytotoxicity in human keratinocytes; format: cell-based; details: human keratinocytes cell line, 1 mg/mL, read-out: cell viability (cells survived)
Protocol: as §2, §3

[4] = target: collagenase type 1 from Clostridium histolyticum (Hathewaya histolytica (Clostridium histolyticum), UniProt Q46085); assay: biochemical; details: read-out: Anti-Collagenase % Inhibition
collagenase type 1 from Clostridium histolyticum, sequence (Q46085 41-1021 limits assumed): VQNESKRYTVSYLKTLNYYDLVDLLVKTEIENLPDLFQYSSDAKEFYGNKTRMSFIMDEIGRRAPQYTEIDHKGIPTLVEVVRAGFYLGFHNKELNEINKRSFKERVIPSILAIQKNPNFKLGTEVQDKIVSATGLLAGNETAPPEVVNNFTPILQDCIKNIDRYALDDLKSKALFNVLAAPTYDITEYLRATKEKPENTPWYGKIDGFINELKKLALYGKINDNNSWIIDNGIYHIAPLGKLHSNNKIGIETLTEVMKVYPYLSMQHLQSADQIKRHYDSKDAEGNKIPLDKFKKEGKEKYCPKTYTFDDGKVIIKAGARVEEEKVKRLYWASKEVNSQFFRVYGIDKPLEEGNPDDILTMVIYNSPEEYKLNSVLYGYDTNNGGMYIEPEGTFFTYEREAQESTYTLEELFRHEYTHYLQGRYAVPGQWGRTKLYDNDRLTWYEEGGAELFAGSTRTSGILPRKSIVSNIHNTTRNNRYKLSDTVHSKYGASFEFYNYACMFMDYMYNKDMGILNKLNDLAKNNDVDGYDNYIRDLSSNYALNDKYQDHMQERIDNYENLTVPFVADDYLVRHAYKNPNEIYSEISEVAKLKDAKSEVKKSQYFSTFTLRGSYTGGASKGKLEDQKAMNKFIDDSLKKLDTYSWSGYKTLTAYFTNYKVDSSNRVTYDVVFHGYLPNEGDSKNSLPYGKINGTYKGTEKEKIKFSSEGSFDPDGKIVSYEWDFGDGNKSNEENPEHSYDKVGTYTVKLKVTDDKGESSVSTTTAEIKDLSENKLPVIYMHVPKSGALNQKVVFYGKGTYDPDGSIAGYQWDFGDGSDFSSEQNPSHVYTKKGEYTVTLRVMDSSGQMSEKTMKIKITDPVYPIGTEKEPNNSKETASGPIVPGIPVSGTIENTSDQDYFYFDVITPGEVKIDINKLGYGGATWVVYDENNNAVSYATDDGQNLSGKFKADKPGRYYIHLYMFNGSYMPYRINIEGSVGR

mushroom tyrosinase = mushroom tyrosinase (Agaricus bisporus, UniProt C7FF04); assay: Anti-tyrosinase assay; format: biochemical; details: 300 μg/mL tested samples; positive control kojic acid (methods: 1.4 mg/mL)
mushroom tyrosinase, sequence (G1K3P4 entry or part of it): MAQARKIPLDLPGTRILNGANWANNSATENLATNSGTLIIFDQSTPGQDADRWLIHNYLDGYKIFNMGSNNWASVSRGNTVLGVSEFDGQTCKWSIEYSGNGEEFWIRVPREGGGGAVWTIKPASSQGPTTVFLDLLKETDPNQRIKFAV
mushroom tyrosinase, sequence (C7FF04 1-392): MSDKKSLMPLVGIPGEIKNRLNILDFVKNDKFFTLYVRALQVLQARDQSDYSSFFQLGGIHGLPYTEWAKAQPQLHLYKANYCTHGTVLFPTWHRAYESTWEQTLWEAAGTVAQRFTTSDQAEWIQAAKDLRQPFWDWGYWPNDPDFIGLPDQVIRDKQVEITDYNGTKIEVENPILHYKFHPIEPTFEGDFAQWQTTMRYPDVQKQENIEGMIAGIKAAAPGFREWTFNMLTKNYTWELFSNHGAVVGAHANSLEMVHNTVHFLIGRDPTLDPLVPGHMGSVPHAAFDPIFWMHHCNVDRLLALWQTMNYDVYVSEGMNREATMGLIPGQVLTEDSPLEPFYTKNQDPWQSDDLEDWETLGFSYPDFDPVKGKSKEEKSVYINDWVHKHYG
Protocol: For the anti-tyrosinase assay, 5600 units/mL of mushroom tyrosinase was incubated with each of the tested extracts or 1.4 mg/mL kojic acid (standard inhibitor) for 15 min at 37 °C before adding 1 mM L-DOPA as a substrate. The absorbance of the formed dopachrome was measured at 475 nm. The tested samples were used in a concentration range of 75–500 µg/mL.

SMILES	DPPH IC50 (DPPH assay)	ABTS IC50 (ABTS assay)	β-carotene assay IC50 [1]	inhibition at 1400 µg/mL (human leukocyte elastase; 300 μg/mL tested samples, positive control N-(Methoxysuccinyl)-Ala-Ala-Pro-Val-chloromethyl ketone (methods: 1.4 mg/mL))	IC50 (human leukocyte elastase; positive control N-(Methoxysuccinyl)-Ala-Ala-Pro-Val-chloromethyl ketone)	reduction in cell viability [2]	viability at 24 h, 1 mg/mL [3]	inhibition at 1400 µg/mL [4]	inhibition at 300 µg/mL (mushroom tyrosinase)
O=C1O[C@H]([C@@H](O)CO)C(O)=C1O [vitamin C, reference compound]	2 ± 0.01 µg/mL	0.96 ± 0.02 µg/mL							
O=C(Cc1ccc(O)c(O)c1)OC[C@H]1O[C@@H](Oc2c(-c3ccc(O)cc3)oc3cc(O)cc(O)c3c2=O)[C@H](O)[C@@H](O)[C@@H]1O [KDPAG, kaempferol 3-O-β-^4C1-(6″-O-3,4-dihydroxyphenylacetyl glucopyranoside)]	6.35 ± 3.40 µg/mL	3.91 ± 1.43 µg/mL	1.73 ± 0.05 µg/mL	89.2 ± 1.26%	83.2 µM	no observed significant reduction	89%	91.1 ± 2.45%	85.7 ± 2.1%
Cc1cc(C(C)(C)C)c(O)c(C(C)(C)C)c1 [BHT, reference compound]			8.06 ± 0.67 µg/mL						
